Read-outs that look alike come from different tables or passages of the source.
Legend:
[1] = test system: inflammatory muscle tissue; settings: cited from earlier work
[2] = test system: 786-O bone metastases; experiment: PET/CT imaging in 786-O/luc bone metastasis mouse model; settings: for accumulation in bone metastases / osteolytic lesions: [F-18]-fluoride day 51, [F-18]-D-FMT day 65
Procedure: 786-O/luc cells and the MDA-MB231SA/luc cells were harvested from subconfluent cell culture flasks and resuspended in PBS (Biochrom AG) to a final concentration of 5×10^5 cells/100 μl. For intracardiac inoculations, 5-week-old female athymic nude mice (Harlan-Winkelmann GmbH, Borchen, Germany) were anesthetized with an intraperitoneal injection of 5% Rompun (Bayer HealthCare AG, Leverkusen, Germany)/10% Ketavet (Pfizer, Karlsruhe, Germany) in 0.9% NaCl at a dose of 0.1 ml/10 g body weight. Using an insulin syringe (BD Micro-Fine+Demi U-100, Becton Dickinson GmbH, Heidelberg, Germany), 5×10^5 786-O/luc cells in 100 μl PBS were inoculated into the left cardiac ventricle (i.c.) of anesthetized mice. Experiments were approved by the governmental review committee on animal care.
10 to 12 MBq [F-18]-fluoride or [F-18]-D-FMT were injected i.v. into the tail vein. 60 min after injection anesthesia was induced by isoflurane/O2 and twenty-minute micro-PET/computed tomography (CT) scans were obtained using an Inveon micro PET/CT scanner (Siemens).
51 days after the inoculation of the 786-O/luc cells into the mice, PET/CT imaging was performed with [F-18]-fluoride (FIG. 1 right side). […] The same mouse was imaged 2 weeks later (day 65) with [F-18]-D-FMT (FIG. 1 left side).

[3] = in vivo; cited from earlier work
[4] = test system: MDA-MB231SA bone metastases; experiment: PET/CT imaging in MDA-MB231SA/luc bone metastasis mouse model; type: in vivo; settings: PET/CT 25 days after inoculation
Description: To conclude, [F-18]-D-FMT is useful for the detection of bone metastases.

[5] = test system: 786-O/luc cells; experiment: in vitro uptake of [F-18]-D-FMT into 786-O/luc cells; type: cell-based, human; settings: after 30 min

**Q.** For “18F-fluorodeoxyglucose [FDG, reference compound]”, which “uptake in inflammatory muscle tissue” value ([1]; in vivo) is on record?
**A.** The value was “taken up”.

**Q.** Which “uptake into regenerating and remineralizing bone / detection of osteoblastic activity” value [2] does the source give for [18FH] [[F-18]-fluoride, reference compound] here?
**A.** The value was “unspecific uptake”.

**Q.** What about the “accumulation in bone metastases / osteolytic lesions” value [2] of the same molecule?
**A.** Its value is “high accumulation in multiple osteolytic lesions”.

**Q.** And the “blood-borne tracer carried in red cells” value [3]?
**A.** The value was “approximately 30%”.

**Q.** Which “uptake into regenerating and remineralizing bone / detection of osteoblastic activity” value [2] does the source give for N[C@H](Cc1ccc(OC[18F])cc1)C(=O)O [[F-18]-D-FMT, (R)-2-amino-3-(4[F-18]fluoromethoxy-phenyl)-propionic acid] here?
**A.** The value was “not detected”.

**Q.** And the “uptake into the healthy bone” value ([2]; 60 min after i.v. injection)?
**A.** Its value is “no uptake”.

**Q.** What about the “accumulation in bone metastases / osteolytic lesions” value [2] of the same molecule?
**A.** Its value is “accumulated in all bone metastases imaged by [F-18]-fluoride”.

**Q.** What about the “uptake into the bone metastases” value [4] of the same molecule?
**A.** The value was “showed uptake into the bone metastases”.

**Q.** What about the “uptake into the 786-O/luc cells” value [5] of the same molecule?
**A.** Its value is 12.8 % applied dose/10^6 cells.

**Q.** What about the “uptake in inflammatory muscle tissue” value ([1]; Turpentine-induced inflammation) of the same molecule?
**A.** The value was “no uptake”.

Source: patent US20130028838A1, “F18-TYROSINE DERIVATIVES FOR IMAGING BONE METASTASES” (PIRAMAL IMAGING SA, priority 2010, published 2013)
